Here are results for three compounds from patent US8680114B2, “AKT protein kinase inhibitors” (Array Biopharma, Inc., priority 2003, dated 2014).

The assay concerns the target full-length human recombinant active AKT-1 (Homo sapiens, UniProt P31749). Kind of assay: AKT-1 kinase assay (IMAP fluorescence polarization, phosphorylation of fluorescently-labeled peptide). Particulars: AKT-1 IMAP assay, qualitative statement, values not given. In kind it is biochemical. The source says:
The activity of the compounds described in the present invention may be determined by the following procedure: This procedure describes a kinase assay that measures the phosphorylation of a fluorescently-labeled peptide by full-length human recombinant active AKT-1 by fluorescent polarization using a commercially available IMAP kit.
The assay materials come from an IMAP AKT Assay Bulk Kit, product #R8059, from Molecular Devices, Sunnyvale, Calif. The kit materials include an IMAP Reaction Buffer (5×): The diluted 1×IMAP Reaction Buffer contains 10 mM Tris-HCl, pH 7.2, 10 mM MgCl2, 0.1% BSA, 0.05% NaN3. DTT is routinely added to a final concentration of 1 mM immediately prior to use.
Also included are IMAP Binding Buffer (5×), and IMAP Binding Reagent. The Binding Solution is prepared as a 1:400 dilution of IMAP Binding Reagent into 1×IMAP Binding Buffer.
Fluorescein-labeled AKT Substrate (Crosstide), having the sequence (F1)-GRPRTSSFAEG. A stock solution of 20 μM is made up in 1×IMAP Reaction Buffer.
The plates used include a Costar 3657 ([…] made of polypropylene and having a white, v-bottom) that is used for compound dilution and for preparing the compound-ATP mixture. The assay plate was the Packard ProxyPlate™-384 F.
The AKT-1 used was made from full-length, human recombinant AKT-1 that is activated with PDK1 and MAP kinase 2.
The assay procedure starts the preparation of stock solutions of compounds at 10 mM in DMSO. The stock solutions and the control compound are serially diluted 1:2 nine times into DMSO (10 μL of compound+10 μL of DMSO) to give 50× dilution series over the desired dosing range. […]
The assay is initiated by the addition of 2.5-μL aliquots of a solution containing 200 nM of fluorescently-labeled peptide substrate and 4 nM AKT-1. […] The reaction is then quenched by the addition of 15 μL of Binding Solution, centrifuged again and incubated for an additional 30 minutes at ambient temperature prior to reading on a Victor 1420 Multilabel HTS Counter configured to measure fluorescence polarization.
(Fluorescence polarisation rises when a labelled molecule tumbles more slowly, as on binding a larger partner.)

Chain of full-length human recombinant active AKT-1 (P31749 whole entry): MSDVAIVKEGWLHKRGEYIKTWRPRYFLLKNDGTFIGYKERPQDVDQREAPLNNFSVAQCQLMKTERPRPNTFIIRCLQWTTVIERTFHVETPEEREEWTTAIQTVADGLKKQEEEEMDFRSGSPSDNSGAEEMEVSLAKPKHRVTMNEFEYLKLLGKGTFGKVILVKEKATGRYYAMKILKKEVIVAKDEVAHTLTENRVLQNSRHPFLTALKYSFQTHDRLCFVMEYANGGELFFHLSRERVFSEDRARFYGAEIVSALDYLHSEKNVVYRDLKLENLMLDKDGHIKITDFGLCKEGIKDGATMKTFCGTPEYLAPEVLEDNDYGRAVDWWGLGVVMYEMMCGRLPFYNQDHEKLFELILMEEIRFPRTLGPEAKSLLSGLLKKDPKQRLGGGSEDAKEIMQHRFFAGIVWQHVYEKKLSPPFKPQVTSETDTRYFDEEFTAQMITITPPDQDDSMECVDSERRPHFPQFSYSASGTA

On to `N[C@H](Cc1ccc(Cl)cc1)C(=O)N1CCN(c2ncnc3ccccc23)CC1` [Example 9, (2R)-2-Amino-3-(4-chlorophenyl)-1-(4-quinazolin-4-yl-piperazin-1-yl)-propan-1-one], for which the “activity for inhibiting AKT protein kinases” value is on record as “showed activity”.
`N[C@H](Cc1ccc2ccccc2c1)C(=O)N1CCN(c2ncnc3ccccc23)CC1` [Example 11, (2R)-2-Amino-3-(2-naphthyl)-1-(4-quinazolin-4-yl-piperazin-1-yl)-propan-1-one]: the “activity for inhibiting AKT protein kinases” value is “showed activity”.
Turning to `N[C@H](Cc1ccc(Cl)cc1)C(=O)N1CCN(c2ccnc3ccsc23)CC1` [Example 24, (2R)-2-amino-3-(4-chlorophenyl)-1-(4-thieno[3,2,b]pyridin-7-yl-piperazin-1-yl)-propan-1-one dihydochloride], the “activity for inhibiting AKT protein kinases” value was “showed activity”.
